# Laboratory results taken from patent US9321756B2, “Azole compounds as PIM inhibitors” (priority 2011, dated 2016).
# Where two headings read alike, the source gives them in different places.
# Tests used:
# [1] = molecular target: full length recombinant Pim-1 (Homo sapiens (Human), UniProt P11309); assay: Pim enzyme assay (HTRF, phosphorylation of biotinylated-BAD (S112) peptide), Pim-1; format: biochemical
# [2] = molecular target: full length recombinant Pim-2 (Homo sapiens (Human), UniProt Q9P1W9); assay: Pim enzyme assay (HTRF, phosphorylation of biotinylated-BAD (S112) peptide), Pim-2; format: biochemical; conditions: read-out: Pim2_IC50
# [3] = molecular target: full length recombinant Pim-3 (Homo sapiens (Human), UniProt Q86V86); assay: Pim enzyme assay (HTRF, phosphorylation of biotinylated-BAD (S112) peptide), Pim-3; format: biochemical; conditions: read-out: Pim3 IC50
# Summary of the method: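 IC50 values were fitted with a 4-parameter logistic model to percent-of-control HTRF signal (Eu anti-phospho-BAD S112 antibody/streptavidin-APC). Reactions used full-length Pim-3 and biotin-BAD (S112) peptide, ran 1 h 30 min at RT (22 °C) in Hepes pH 7.0 buffer with BSA and DTT, and were stopped by 3 mM EDTA.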
# [4] = system: Pim-1 stably transfected U2OS human osteogenic sarcoma line; assay: Pim cell assay U2OS (phospho-BAD normalized against total BAD), Pim-1 transfected; format: cell-based; conditions: Homo sapiens, U2OS
# [5] = system: Pim-2 stably transfected U2OS human osteogenic sarcoma line; assay: Pim cell assay U2OS (phospho-BAD normalized against total BAD), Pim-2 transfected; format: cell-based; conditions: Homo sapiens, read-out: U2OS Pim2_Cell_IC50
# Protocol: The cell lines used in the assay were generated by the stable transfection of either Pim-1 or Pim-2 into the U2OS human osteogenic sarcoma line. The assay for determination of the Pim activity in the engineered U2OS cell lines measures levels of phospho-BAD normalized against total BAD protein levels. It was conducted as follows:
# The adherent cells were dissociated from the flasks using non-enzymatic cell dissociation solution (Sigma #C5914). […] The cells were then incubated overnight at 37° C., 5% CO2.
# In addition to the 10-point dosing curve of the test compound, DMSO alone was run as the high control.
# This dilution in DMSO was then diluted again into cell growth medium. Aliquots (12 μL) of the compound diluted in growth medium were then transferred to the appropriate wells of the 96-well plates containing cells to a final DMSO concentration of 0.3%. The cell plates were then incubated with compound for 29 min at 37° C., 5% CO2.
# The cell plates containing lysis buffer were then immediately stored at −70° C.
# These prepared lysates were then assayed for phospho and total BAD according to the manufacturer's protocols (Meso Scale Diagnostics, Cat#K15103C-3 & #K15103D-3). The plates were read on the MSD Sector Imager 6000, and results were calculated according to the assay protocols ((% Phosphoprotein=((2×Phospho signal)/(Phospho signal+Total signal))×100)).
# [6] = Pim-1 enzyme assay, read-out: Pim_1_IC50
# [7] = read-out: U2OS Pim1_Cell_IC50, U2OS cells, Pim-1 transfected
# Sequence of full length recombinant Pim-1 (P11309 whole entry): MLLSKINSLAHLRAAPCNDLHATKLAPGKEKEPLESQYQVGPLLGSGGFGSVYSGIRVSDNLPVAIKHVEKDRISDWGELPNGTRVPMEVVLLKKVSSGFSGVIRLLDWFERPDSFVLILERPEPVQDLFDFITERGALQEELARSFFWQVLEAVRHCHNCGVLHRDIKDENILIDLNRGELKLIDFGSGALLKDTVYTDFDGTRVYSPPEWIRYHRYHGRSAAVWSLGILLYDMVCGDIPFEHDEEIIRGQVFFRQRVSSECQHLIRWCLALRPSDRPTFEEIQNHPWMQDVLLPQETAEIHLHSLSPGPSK
# Sequence of full length recombinant Pim-2 (Q9P1W9 whole entry): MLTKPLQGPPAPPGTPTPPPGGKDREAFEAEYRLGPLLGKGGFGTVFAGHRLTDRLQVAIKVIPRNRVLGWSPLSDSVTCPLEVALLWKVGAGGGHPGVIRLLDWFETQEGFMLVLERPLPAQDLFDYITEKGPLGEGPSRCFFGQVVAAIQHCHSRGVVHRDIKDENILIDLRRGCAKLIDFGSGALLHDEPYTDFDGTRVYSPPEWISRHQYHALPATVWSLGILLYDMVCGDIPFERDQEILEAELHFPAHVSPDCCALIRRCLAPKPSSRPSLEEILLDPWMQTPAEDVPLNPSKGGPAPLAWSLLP
Structure (SMILES),"IC50 [1, 6] [nM]",IC50 ([2]; Pim-2 enzyme assay) [nM],IC50 ([3]; Pim-3 enzyme assay) [nM],"IC50 [4, 7] [nM]","IC50 ([5]; U2OS cells, Pim-2 transfected) [nM]",IC50 ([4]; read-out: U2OS Pim1_Cell_IC50) [nM],IC50 ([1]; read-out: Pim_1_IC50) [nM],IC50 [1] [nM],IC50 ([5]; U2OS) [nM],IC50 [2] [nM],IC50 [3] [nM]
"CC1CCCCN1c1cncc(-c2c[nH]c3ccc(-c4nnc(N)o4)cc23)n1 (stereo not drawn) [Example 1, 5-(3-(6-(2-methylpiperidin-1-yl)pyrazin-2-yl)-1H-indol-5-yl)-1,3,4-oxadiazol-2-amine]",0.714,2.06,1.06,11.9,435,,,,,,
"Nc1nnc(-c2ccc3[nH]cc(-c4cncc(N5CCCCC5)n4)c3c2)o1 [Example 89, 5-(3-(6-(1-piperidinyl)-2-pyrazinyl)-1H-indol-5-yl)-1,3,4-oxadiazol-2-amine]",2.11,4.77,1.83,59.9,692,,,,,,
"Cc1ccn(-c2cccc(-c3c[nH]c4ccc(-c5nnc(N)s5)cc34)n2)n1 [Example 179, 5-(3-(6-(3-methyl-1H-pyrazol-1-yl)-2-pyridinyl)-1H-indol-5-yl)-1,3,4-thiadiazol-2-amine]",77,64.6,24.1,,> 31600,816,,,,,
"CC(C)Oc1cncc(-c2c[nH]c3ccc(-c4nnc(N)s4)cc23)n1 [Example 159, 5-(3-(6-(1-methylethoxy)-2-pyrazinyl)-1H-indol-5-yl)-1,3,4-thiadiazol-2-amine]",,16.6,3,91.9,2220,,8.2,,,,
"Nc1nnc(-c2ccc3[nH]cc(-c4cccc(-n5cccn5)n4)c3c2)s1 [Example 180, 5-(3-(6-(1H-pyrazol-1-yl)-2-pyridinyl)-1H-indol-5-yl)-1,3,4-thiadiazol-2-amine]",82.1,49.5,26.6,,5460,926,,,,,
"CNc1nnc(-c2ccc3[nH]cc(-c4ccnc(N5CCOCC5)n4)c3c2)s1 [Example 129, N-methyl-5-(3-(2-(4-morpholinyl)-4-pyrimidinyl)-1H-indol-5-yl)-1,3,4-thiadiazol-2-amine]",31.3,82.4,12.3,982,> 31600,,,,,,
"COc1ccc(-c2c[nH]c3ccc(-c4nnc(N)s4)cc23)nc1OC [Example 168, 5-(3-(5,6-dimethoxy-2-pyridinyl)-1H-indol-5-yl)-1,3,4-thiadiazol-2-amine]",23.2,44.1,6.34,,> 3160,111,,,,,
"Nc1nnc(-c2ccc3[nH]cc(-c4cccc(-n5cccn5)n4)c3c2)o1 [Example 77, 5-(3-(6-(1H-pyrazol-1-yl)-2-pyridinyl)-1H-indol-5-yl)-1,3,4-oxadiazol-2-amine]",11.9,13.7,4.13,112,1890,,,,,,
"CC1(C)CNc2ncc(-c3c[nH]c4ccc(-c5nnc(N)s5)cc34)nc21 [Example 201, 5-(3-(7,7-dimethyl-6,7-dihydro-5H-pyrrolo[2,3-b]pyrazin-2-yl)-1H-indol-5-yl)-1,3,4-thiadiazol-2-amine]",17.9,32.4,4.93,,3830,387,,,,,
"CC(C)Oc1cncc(-c2c[nH]c3ccc(-c4nnc(N)o4)cc23)n1 [Example 76, 5-(3-(6-(1-methylethoxy)-2-pyrazinyl)-1H-indol-5-yl)-1,3,4-oxadiazol-2-amine]",5.59,5.18,2.47,,636,35.8,,,,,
"CNc1nnc(-c2ccc3[nH]cc(-c4cccc(N5CCOCC5)n4)c3c2)s1 [Example 214, N-methyl-5-(3-(6-(4-morpholinyl)-2-pyridinyl)-1H-indol-5-yl)-1,3,4-thiadiazol-2-amine]",25.7,91.9,10.1,587,15200,,,,,,
"CN(C)[C@H]1CCCN(c2ccnc(-c3c[nH]c4ccc(-c5nnc(N)o5)cc34)n2)C1 (stereo in doubt) [Example 107, 1-(2-(5-(5-amino-1,3,4-oxadiazol-2-yl)-1H-indol-3-yl)-4-pyrimidinyl)-N,N-dimethyl-3-piperidinamine]",5.98,3.24,3.74,,> 31600,3860,,,,,
"CC(C)Nc1nnc(-c2ccc3[nH]cc(-c4cncc(C5CC5)n4)c3c2)o1 [Example 46, 5-(3-(6-cyclopropylpyrazin-2-yl)-1H-indol-5-yl)-N-isopropyl-1,3,4-oxadiazol-2-amine]",1.39,4.25,0.498,,827,32.1,,,,,
"Nc1nnc(-c2ccc3[nH]cc(-c4cncc(C5CC5)n4)c3c2)o1 [Example 98, 5-(3-(6-cyclopropyl-2-pyrazinyl)-1H-indol-5-yl)-1,3,4-oxadiazol-2-amine]",4.34,4.85,1.59,,721,85.7,,,,,
"CCOc1cncc(-c2c[nH]c3ccc(-c4nnc(N)s4)cc23)n1 [Example 19, 5-(3-(6-ethoxypyrazin-2-yl)-1H-indol-5-yl)-1,3,4-thiadiazol-2-amine]",19.7,27.8,7.8,205,2750,,,,,,
"CC(C)Oc1cccc(-c2c[nH]c3ccc(-c4nnco4)cc23)n1 [Example 244, 3-(6-(1-methylethoxy)-2-pyridinyl)-5-(1,3,4-oxadiazol-2-yl)-1H-indole]",24.8,85.4,15.1,,12200,310,,,,,
"Nc1nnc(-c2ccc3[nH]cc(-c4nccc(-c5ccccc5Cl)n4)c3c2)o1 [Example 118, 5-(3-(4-(2-chlorophenyl)-2-pyrimidinyl)-1H-indol-5-yl)-1,3,4-oxadiazol-2-amine]",16.7,19.2,15.7,,> 31600,217,,,,,
"COc1cc(-c2c[nH]c3ccc(-c4nnc(N)s4)cc23)nc(OC)n1 [Example 202, 5-(3-(2,6-dimethoxy-4-pyrimidinyl)-1H-indol-5-yl)-1,3,4-thiadiazol-2-amine]",,87.5,11.1,,,238,,73.2,> 31600,,
"CNc1nnc(-c2ccc3[nH]cc(-c4ccc5c(c4)OC(C)(C)C5)c3c2)s1 [Example 216, 5-(3-(2,2-dimethyl-2,3-dihydro-1-benzofuran-6-yl)-1H-indol-5-yl)-N-methyl-1,3,4-thiadiazol-2-amine]",187,1840,91.5,,> 31600,1770,,,,,
"Nc1nnc(-c2ccc3[nH]cc(-c4cccc(-c5ccc(Cl)cc5)n4)c3c2)s1 [Example 31, 5-(3-(6-(4-chlorophenyl)pyridin-2-yl)-1H-indol-5-yl)-1,3,4-thiadiazol-2-amine]",,,,1090,28300,,37.4,,,75.5,13.6
"C[C@H]1COCCN1c1ccnc(-c2c[nH]c3ccc(-c4nnc(N)o4)cc23)n1 [Example 91, 5-(3-(4-((3S)-3-methyl-4-morpholinyl)-2-pyrimidinyl)-1H-indol-5-yl)-1,3,4-oxadiazol-2-amine]",1.96,1.07,2.21,,1050,221,,,,,
